Source: patent US20250368633A1, “AZEPINE FUSED RING COMPOUND AS RIPK1 INHIBITOR AND USE THEREOF” (ARTIVILA BIOPHARMA, priority 2022, published 2025)

Experiments:
RIPK1 kinase = molecular target: T1, RIPK1 kinase (Homo sapiens, UniProt Q13546); assay: In vitro RIPK1 kinase activity assay (ADP-Glo), inhibition by compounds at 1 μM; type: biochemical; settings: compound 1 μM; ATP 10 μM; MBP substrate 100 μg/mL; read-out: RIPK1 kinase activity inhibition rate range
T1 construct: purchased Promega VA7593
T1 sequence (Q13546 1-671): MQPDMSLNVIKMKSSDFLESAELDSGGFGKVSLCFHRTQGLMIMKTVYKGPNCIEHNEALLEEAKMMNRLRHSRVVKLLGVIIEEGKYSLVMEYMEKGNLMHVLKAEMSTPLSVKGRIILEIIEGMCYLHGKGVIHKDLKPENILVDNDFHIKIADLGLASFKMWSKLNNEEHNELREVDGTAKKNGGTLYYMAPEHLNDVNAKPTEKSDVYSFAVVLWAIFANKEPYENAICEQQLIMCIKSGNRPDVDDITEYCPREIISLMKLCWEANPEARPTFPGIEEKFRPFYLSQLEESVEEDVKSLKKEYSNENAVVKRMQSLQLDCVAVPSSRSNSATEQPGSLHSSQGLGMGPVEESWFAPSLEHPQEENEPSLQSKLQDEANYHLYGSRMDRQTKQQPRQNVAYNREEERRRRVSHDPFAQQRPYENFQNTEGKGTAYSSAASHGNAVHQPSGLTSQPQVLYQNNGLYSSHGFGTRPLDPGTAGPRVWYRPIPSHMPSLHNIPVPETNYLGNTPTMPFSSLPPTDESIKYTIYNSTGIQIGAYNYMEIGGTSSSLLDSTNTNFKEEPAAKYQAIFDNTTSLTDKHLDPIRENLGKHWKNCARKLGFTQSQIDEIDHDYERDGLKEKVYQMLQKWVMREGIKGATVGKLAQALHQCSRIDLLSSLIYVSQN
How it was run: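 Read by ADP-Glo chemiluminescence as percent inhibition: RIPK1 kinase, 15-min room-temperature compound preincubation, then 1-h reaction with MBP (100 μg/mL final) and ATP (10 μM final). Enzyme level was set by titration.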

U937 cells = assay: EC50 of necroptosis inhibition in U937 cells (TSZ-induced, CellTiter-Glo); type: cell-based; settings: Homo sapiens, U-937; TSZ (hTNF-α, SM-164, Z-VAD-FMK) 20 hours; 10 concentration points; read-out: EC50 intervals of necroptosis inhibition in U937 cells
How it was run: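 Luminescent ATP readout (CellTiter-Glo) after 20 h gave viability of TSZ-challenged U937 cells; compounds were added 15 min ahead of TNF-α/SM-164/Z-VAD-FMK. EC50 derived by variable-slope nonlinear regression of inhibition relative to no-TSZ and TSZ-alone controls.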

Compound | inhibition at 1 µM (RIPK1 kinase) | EC50 (U937 cells)
CN1C(=O)[C@@H](NC(=O)C(=O)NCCc2ccccc2)COc2ccc(C#CCNC(=O)OC(C)(C)C)cc21 [Example 86, tert-butyl (S)-(3-(5-methyl-4-oxo-3-(2-oxo-2-(phenethylamino)acetamido)-2,3,4,5-tetrahydrobenzo[b][1,4]oxazepin-7-yl)prop-2-yn-1-yl)carbamate] | 50 to 74% | < 0.1 µM
CN1C(=O)[C@@H](NC(=O)C(=O)NCCc2ccccc2)COc2ccc(C#CCNC(=O)CO)cc21 [Example 88, (S)—N^1-(7-(3-(2-hydroxyacetamido)prop-1-yn-1-yl)-5-methyl-4-oxo-2,3,4,5-tetrahydrobenzo[b][1, 4]oxazepin-3-yl)-N^2-phenethyloxalamide] | ≥ 75% | < 0.1 µM
C=CC(=O)NCC#Cc1ccc2c(c1)N(C)C(=O)[C@@H](NC(=O)C(=O)NCCc1ccccc1)CO2 [Example 89, (S)—N^1-(7-(3-acrylamidoprop-1-yn-1-yl)-5-methyl-4-oxo-2,3,4,5-tetrahydrobenzo[b][1,4]oxazepin-3-yl)-N^2-phenethyloxalamide] | 50 to 74% | < 0.1 µM
CN1C(=O)[C@@H](NC(=O)C(=O)NCCc2ccccc2)COc2ccc(C#CC3CN(C=O)C3)cc21 [Example 91, (S)—N^1-(7-((1-formylazetidin-3-yl)ethynyl)-5-methyl-4-oxo-2,3,4,5-tetrahydrobenzo[b][1,4]oxazepin-3-yl)-N^2-phenethyloxalamide] | ≥ 75% | < 0.1 µM
CN1C(=O)[C@@H](NC(=O)C(=O)NCCc2ccccc2)COc2ccc(C#CC3(O)CN(C=O)C3)cc21 [Example 92, (S)—N^1-(7-((1-formyl-3-hydroxyazetidin-3-yl)ethynyl)-5-methyl-4-oxo-2,3,4,5-tetrahydrobenzo[b][1,4]oxazepin-3-yl)-N^2-phenethyloxalamide] | 50 to 74% | < 0.1 µM
CCOC(=O)CCC#Cc1ccc2c(c1)N(C)C(=O)[C@@H](NC(=O)C(=O)NCCc1ccccc1)CO2 [Example 94, ethyl (S)-5-(5-methyl-4-oxo-3-(2-oxo-2-(phenethylamino)acetamido)-2,3,4,5-tetrahydrobenzo[b][1,4]oxazepin-7-yl) pent-4-ynoate] | ≥ 75% | 0.1 to 0.5 µM
CN1C(=O)[C@@H](NC(=O)C(=O)NCc2ccccc2)COc2ccc(C#CCn3ccnc3)cc21 [Example 104, (S)—N^1-(7-(3-(1H-imidazol-1-yl)prop-1-yn-1-yl)-5-methyl-4-oxo-2,3,4,5-tetrahydrobenzo[b][1,4]oxazepin-3-yl)-N^2-benzyloxalamide] | ≥ 75% | < 0.1 µM
CN1C(=O)[C@@H](NC(=O)C(=O)NCc2ccccc2)COc2ccc(C#CCN3CCOCC3)cc21 [Example 106, (S)—N^1-benzyl-N^2-(5-methyl-7-(3-morpholinoprop-1-yn-1-yl)-4-oxo-2,3,4,5-tetrahydrobenzo[b][1, 4]oxazepin-3-yl)oxalamide] | ≥ 75% | < 0.1 µM
CN1C(=O)[C@@H](NC(=O)C(=O)NCc2ccccc2)COc2ccc(C#CCN3CCNC(=O)C3)cc21 [Example 107, (S)—N^1-benzyl-N^2-(5-methyl-4-oxo-7-(3-(3-oxopiperazin-1-yl)prop-1-yn-1-yl)-2,3,4,5-tetrahydrobenzo[b][1,4]oxazepin-3-yl)oxalamide] | 50 to 74% | < 0.1 µM
CN1C(=O)[C@H](NC(=O)C(=O)NCCc2cccc(F)c2)COc2ccc(C#CCCO)cc21 [Example 109, (R)—N^1-(3-fluorophenethyl)-N^2-(7-(4-hydroxybut-1-yn-1-yl)-5-methyl-4-oxo-2,3,4,5-tetrahydrobenzo[b][1,4]oxazepin-3-yl)oxalamide] | ≥ 75% | < 0.1 µM
CN1C(=O)[C@@H](NC(=O)C(=O)NCCc2cccc(F)c2)COc2ccc(C#CC3(O)COC3)cc21 [Example 110, (S)—N^1-(3-fluorophenethyl)-N^2-(7-((3-hydroxyoxetan-3-yl)ethynyl)-5-methyl-4-oxo-2,3,4,5-tetrahydrobenzo[b][1,4]oxazepin-3-yl)oxalamide] | ≥ 75% | < 0.1 µM
CN1C(=O)[C@@H](NC(=O)C(=O)NCCc2cccc(F)c2)COc2ccc(C#CCN3CC[C@@H](O)C3)cc21 [Example 114, N^1-(3-fluorophenethyl)-N^2-((S)-7-(3-((R)-3-hydroxypyrrolidin-1-yl)prop-1-yn-1-yl)-5-methyl-4-oxo-2,3,4,5-tetrahydrobenzo[b][1,4]oxazepin-3-yl)oxalamide] | ≥ 75% | < 0.1 µM
CN1C(=O)[C@@H](NC(=O)C(=O)NCCc2cccc(F)c2)COc2ccc(C#CCN3CC[C@H](O)C3)cc21 [Example 115, N^1-(3-fluorophenethyl)-N^2-((S)-7-(3-((S)-3-hydroxypyrrolidin-1-yl)prop-1-yn-1-yl)-5-methyl-4-oxo-2,3,4,5-tetrahydrobenzo[b][1,4]oxazepin-3-yl)oxalamide] | 50 to 74% | < 0.1 µM
CN1C(=O)[C@@H](NC(=O)C(=O)NCCc2cccc(F)c2)COc2ccc(C#Cc3cccnc3)cc21 [Example 117, (S)—N^1-(3-fluorophenethyl)-N^2-(5-methyl-4-oxo-7-(pyridin-3-ylethynyl)-2,3,4,5-tetrahydrobenzo[b][1,4]oxazepin-3-yl)oxalamide] | 50 to 74% | < 0.1 µM
CN1C(=O)[C@@H](NC(=O)C(=O)NCCc2cccc(F)c2)COc2ccc(C#CCN3CCC(=O)CC3)cc21 [Example 118, (S)—N^1-(3-fluorophenethyl)-N^2-(5-methyl-4-oxo-7-(3-(4-oxopiperidin-1-yl)prop-1-yn-1-yl)-2,3,4,5-tetrahydrobenzo[b][1,4]oxazepin-3-yl)oxalamide] | ≥ 75% | < 0.1 µM
CN1C(=O)[C@@H](NC(=O)C(=O)NCCc2cccc(F)c2)COc2ccc(C#CCN3CCOCC3)cc21 [Example 120, (S)—N^1-(3-fluorophenethyl)-N^2-(5-methyl-7-(3-morpholinoprop-1-yn-1-yl)-4-oxo-2,3,4,5-tetrahydrobenzo[b][1,4]oxazepin-3-yl)oxalamide] | ≥ 75% | < 0.1 µM
CN1C(=O)[C@@H](NC(=O)C(=O)NCCc2cccc(F)c2)COc2ccc(C#CCN3C(=O)CCC3=O)cc21 [Example 122, (S)—N^1-(7-(3-(2,5-dioxopyrrolidin-1-yl)prop-1-yn-1-yl)-5-methyl-4-oxo-2,3,4,5-tetrahydrobenzo[b][1,4]oxazepin-3-yl)-N^2-(3-fluorophenethyl)oxalamide] | ≥ 75% | < 0.1 µM
CN1C(=O)[C@@H](NC(=O)C(=O)NCCc2cccc(F)c2)COc2ccc(C#CCN3CCNC(=O)C3)cc21 [Example 123, (S)—N^1-(3-fluorophenethyl)-N^2-(5-methyl-4-oxo-7-(3-(3-oxopiperazin-1-yl)prop-1-yn-1-yl)-2,3,4,5-tetrahydrobenzo[b][1,4]oxazepin-3-yl)oxalamide] | 50 to 74% | < 0.1 µM
C[C@@H](NC(=O)C(=O)N[C@H]1COc2ccc(C#CCN3CC[C@@H](O)C3)cc2N(C)C1=O)c1ccccc1 [Example 128, N^1-((S)-7-(3-((R)-3-hydroxypyrrolidin-1-yl)prop-1-yn-1-yl)-5-methyl-4-oxo-2,3,4,5-tetrahydrobenzo[b][1,4]oxazepin-3-yl)-N^2-((R)-1-phenylethyl)oxalamide] | ≥ 75% | < 0.1 µM
C[C@@H](NC(=O)C(=O)N[C@H]1COc2ccc(C#CCN3CC[C@H](O)C3)cc2N(C)C1=O)c1ccccc1 [Example 130, N^1-((S)-7-(3-((S)-3-hydroxypyrrolidin-1-yl)prop-1-yn-1-yl)-5-methyl-4-oxo-2,3,4,5-tetrahydrobenzo[b][1,4]oxazepin-3-yl)-N^2-((R)-1-phenylethyl)oxalamide] | ≥ 75% | < 0.1 µM
C[C@@H](NC(=O)C(=O)N[C@H]1COc2ccc(C#CC3(O)COC3)cc2N(C)C1=O)c1ccccc1 [Example 132, N^1-((S)-7-((3-hydroxyoxetan-3-yl)ethynyl)-5-methyl-4-oxo-2,3,4,5-tetrahydrobenzo[b][1,4]oxazepin-3-yl)-N^2-((R)-1-phenylethyl)oxalamide] | 50 to 74% | < 0.1 µM
C[C@@H](NC(=O)C(=O)N[C@H]1COc2ccc(C#CC3CCN(CC#N)CC3)cc2N(C)C1=O)c1ccccc1 [Example 137, N^1-((S)-7-((1-(cyanomethyl)piperidin-4-yl)ethynyl)-5-methyl-4-oxo-2,3,4,5-tetrahydrobenzo[b][1, 4]oxazepin-3-yl)-N^2-((R)-1-phenylethyl)oxalamide] | ≥ 75% | < 0.1 µM
